Reference: patent publication US20160367497A1, “METHODS AND COMPOSITIONS FOR TREATING NEUROPATHIES” (Washington University, priority 2007, published 2016)

Key:
AMPK [1] = test: AMPK phosphorylation in Neuro2a cells (phospho-specific western blot); format: cell-based; settings: for effect on resveratrol-mediated activation of AMPK (AMPK and ACC phosphorylation): resveratrol 10 μM, 2 h, sirtinol 10 μM, splitomycin 10 μM, nicotinamide 10 mM, STO 609 2.5 μM
Experimental: FIG. 10A-D illustrates resveratrol activation of AMP kinase in Neuro2a cells. Neuro2a cells were switched to serum-starvation medium (medium containing 0.2% FCS) and treated with DMSO (vehicle control), resveratrol (10 μM) or 5-aminoimidazole-4-carboxamide-1-β-D-ribofuranoside (AICAR) (1 mM). […] Very low levels of phosphorylated AMPK and ACC were detected in DMSO treated control cells at all time points tested. (C) Densitometric analysis of changes in phosphorylated AMPK and (D) phosphorylated ACC under different conditions is shown.
(§1) Cell culture and Reagents. Neuro2 cells obtained from ATCC were grown in MEM with 1.5 g/L sodium bicarbonate, 0.1 mM nonessential amino acids, 0.1 mM sodium pyruvate, 2 mM L-glutamine with 10% FCS. For differentiation, cells were switched to serum-starvation medium (containing 0.2% FCS). For neurite outgrowth measurements, experiments were done in quadruplicate and 100 neurites per well were randomly measured using the Metamorph software. Dorsal root ganglia sensory and cortical neurons were established from E13.5 mouse embryos, maintained in neurobasal medium supplemented with B27 (and NGF for DRG neurons) and infected with lentiviruses as described (Araki et al., 2004, Science 305:1010-1013; Hawley et al., 2005, Cell Metab 2:21-23). Resveratrol was a gift from Sirtris Pharmaceuticals (Cambridge Mass.) and AICAR was obtained from Toronto Research (North York, Canada). Splitomycin and Compound C were purchased from Biomol (Plymouth Meeting, Pa.) and Calbiochem (San Diego, Calif.). Sirtinol and nicotinamide were purchased from Sigma (Saint Louis, Mo.)
(§2) Plasmids and viruses. The dominant negative (dnAMPK) and constitutively active (caAMPK) plasmids were gifts from Russell Jones (University of Pennsylvania, Philadelphia Pa.), and pCXN-Cre was a gift of Inder Verma (Salk Institute, San Diego, Calif.). All constructs were subcloned into the lentiviral shuttle vector FCIV and verified by nucleotide sequence analysis. Viruses were prepared as previously described (Araki et al., 2004, Science 305:1010-1013). Protein and mRNA analysis. Immunoprecipitations and western blot analysis were performed by standard methods using antibodies directed against total AMPK, phosphorylated AMPK, total ACC or phosphorylated ACC that were obtained from Cell Signaling Technology (Beverley, Mass.). The phospho-AMPK antibody detects endogenous AMPK α1 and α2 when phosphorylated at threonine 172. The LKB1 antibody was purchased from Upstate (Lake Placid, N.Y.). Quantitative RT-PCR analysis was performed using Sybr-Green methodology on a model 7700 instrument (Applied Biosystems) as previously described (Araki et al., 2004, Science 305:1010-1013). Primer sequences were those used in previous studies (Motoshima, et al., 2006, J Physiol 574:63-71).
To explore the role of polyphenols, in particular, of resveratrol, we tested whether resveratrol altered the activity of AMPK in neuronal cells. Neuro2a neuroblastoma cells were treated with resveratrol (10 μM) and AMPK activation was examined using phospho-AMPK specific antibodies. […] To confirm that AMPK activation by resveratrol results in typical AMPK-mediated downstream responses, we monitored phosphorylation of ACC (acetyl Co-A carboxylase), a primary target of activated AMPK. […] To examine a potential mechanism of resveratrol-mediated AMPK activation, we measured cellular ATP levels as a decreased ATP:AMP ratio increases the phosphorylation of AMPK. ATP levels were monitored using a luciferase-based assay in neuro2A cells treated with resveratrol or Oligomycin, an inhibitor of mitochondrial oxidative phosphorylation and therefore ATP production. While the ATP concentration dropped from 5.874 μM in DMSO-treated cells (control) to 0.976 μM in Oligomycin treated cells within 2 hr, the ATP concentration in resveratrol-treated Neuro2a cells was not altered from control either at 2 hr (6.33 μM) or 24 hr (6.42 μM).

AMPK [2] = test: AMPK and ACC phosphorylation in DRG sensory neurons; format: cell-based, mouse; settings: for effect on resveratrol-induced AMPK phosphorylation: DRG neurons, resveratrol 10 μM, 2 h
Excerpt: (A) Embryonic DRG neurons from Lkb1 flox/flox mice were infected with lentivirus expressing Cre recombinase (FCIV-Cre) or GFP only (FUGW control). Lentiviral infection was monitored by GFP fluorescence (A). […] Lkb1 flox/flox DRG neurons were infected with FUGW or FCIV-Cre and treated as indicated. AMPK or ACC was immunoprecipitated from neuronal lysates and western blots were probed with the respective phospho-specific antibodies. […] No inhibition of AMPK or ACC phosphorylation was observed by treatment with SIRT1 or CaMKKβ inhibitors. Lysate from AICAR treated DRG neurons was included as a positive control. (E, F) Embryonic DRG neurons were cultured from wild type and SIRT1-deficient littermates derived from SIRT1 heterozygous matings. […] Levels of total AMPK and ACC are shown in the bottom panels of C, D, E and F. Densitometric analysis of changes in levels of phospho AMPK (G) and phospho ACC (H) in SIRT1+/+ and SIRT1−/− DRG neurons in presence and absence of resveratrol is shown. Note: Resv, resveratrol.
as §1, §2
Resveratrol activation of AMPK in Neuro2a cells along with the crucial role of AMPK in promoting neurite outgrowth in these cells encouraged us to examine this pathway in primary neurons. […]

Row | Compound | effect on resveratrol-mediated activation of AMPK (AMPK and ACC phosphorylation) (AMPK [1]) | effect on resveratrol-induced AMPK phosphorylation (AMPK [2]) | AMPK phosphorylation (AMPK [1]; resveratrol 10 μM or AICAR 1 mM, 2 h up to 72 h) | phosphorylation of AMPK and ACC (AMPK [2]; E13.5 DRG sensory neurons, 10 μM)
1 | NC(=O)c1cccnc1 [Nam, nicotinamide] | None of the SIRT1 inhibitors attenuated | none of the SIRT inhibitors | – | –
2 | CC(NC(=O)c1ccccc1/N=C/c1c(O)ccc2ccccc12)c1ccccc1 (stereo not shown) [Sirtinol] | None of the SIRT1 inhibitors attenuated | none of the SIRT inhibitors | – | –
3 | Oc1ccc(C=Cc2cc(O)cc(O)c2)cc1 [resveratrol] | – | – | robust increase in AMPK Thr172 phosphorylation | stimulated phosphorylation of AMPK and ACC
4 | O=C1CCc2c(ccc3ccccc23)O1 [splitomycin] | None of the SIRT1 inhibitors attenuated | none of the SIRT inhibitors | – | –
5 | O=C(O)c1ccc2c3c1cccc3c(=O)n1c3ccccc3nc21 [STO 609] | had no effect | had no effect | – | –
